The text below walks through data of patent US8624034B2, “Fluoro-pyridinone derivatives useful as antibacterial agents” (Pfizer Inc., priority 2011, dated 2014).

In brackets after ≈: the same amount, converted by molar mass. Bounds are passed on as bounds.

The subject of test [1] is Acinetobacter baumannii/haemolyticus, multidrug-resistant clinical isolate (AB-3167). Description: MIC determination, AB-3167. The test is classed as cell-based. The following applies: Table 3, lower of duplicate values. The protocol: (§1) The in vitro antibacterial activity of compounds described in the Examples was evaluated by minimum inhibitory concentration (MIC) testing according to Clinical and Laboratory Standards Institute (CLSI). See: Clinical and Laboratory Standards Institute. Methods for Dilution Antimicrobial Susceptibility Tests for Bacteria that Grow Aerobically; Approved Standard-Eighth Edition. CLSI document M7-A8 [ISBN 1-56238-689-1]. Clinical and Laboratory Standards Institute, 940 West Valley Road, Suite 1400, Wayne, Pa. 19087-1898 USA, 2006; also Clinical and Laboratory Standards Institute. Performance Standards for Antimicrobial Susceptibility Testing; Twentieth Informational Supplement. CLSI document M100-S20 [ISBN 1-56238-716-2]. Clinical and Laboratory Standards Institute.
(§2) The MIC determination is a standard laboratory method for evaluating the antibacterial activity of a compound. The MIC represents the lowest drug concentration that inhibits visible growth of bacteria following overnight incubation. […] Typically, the drug concentration range is broken down into 2-fold increments (e.g. 0.06 μg/mL, 0.12 μg/mL. 0.25 μg/mL, 0.50 μg/mL, 1.0 μg/mL, etc.) and the various drug concentrations are all individually incubated overnight with approximately the same number of bacteria. The MIC is then determined by visually inspecting the drug effect at each concentration, and identifying the lowest drug concentration that has inhibited bacterial growth as compared to the drug free control. Typically, bacteria continue to grow at drug concentrations lower than the MIC and don't grow at concentrations at and above the MIC.
(§3) The MIC values described in Table 2 and 3 below were derived from assays wherein each test compound was evaluated in duplicate. In cases where the duplicate values varied by 0-2-fold, the lower of the two values was reported below. Generally speaking, if the duplicate values varied by more than 2-fold, the assay was considered non-valid and was repeated until the variation between duplicate runs was ≦2-fold. In line with the CLSI guidelines referred to above, both control organisms and reference compounds were utilized in each MIC assay to provide proper quality control. MIC values generated with these control organisms and reference compounds were required to fall within a defined range for the assay to be considered valid and be included herein. Those skilled in the art will recognize that MIC values can and do vary from experiment to experiment. Generally speaking, it should be recognized that MIC values often vary +/−2-fold from experiment to experiment. While a single MIC is reported for each compound and each microorganism, the reader should not conclude that each compound was only tested once. Several of the compounds were subjected to multiple tests. The data reported in Tables 2 and 3 is reflective of the compounds relative activity and different MICs may have been generated on these occasions in line with the guidelines described above.
(§4) The following bacterial strains were used in these MIC determinations:
2) Acinetobacter baumannii/haemolyticus: Multidrug-resistant clinical isolate labeled as AB-3167 in Tables 2 and 3;

For test [2], the target named is T1, Pseudomonas aeruginosa LpxC enzyme (Pseudomonas aeruginosa, UniProt P47205).
T1 construct: made in house; host or cells: E. coli
T1 sequence (P47205 1-303): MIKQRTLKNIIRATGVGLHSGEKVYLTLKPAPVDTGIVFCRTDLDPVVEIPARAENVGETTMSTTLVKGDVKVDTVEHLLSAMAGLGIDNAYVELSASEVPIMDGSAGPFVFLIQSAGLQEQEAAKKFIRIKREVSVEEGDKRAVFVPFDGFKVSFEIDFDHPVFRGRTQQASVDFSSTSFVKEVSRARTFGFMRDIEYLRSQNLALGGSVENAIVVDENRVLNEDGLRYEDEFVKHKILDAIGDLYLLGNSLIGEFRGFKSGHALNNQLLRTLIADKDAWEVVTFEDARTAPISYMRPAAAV
Kind of test: IC50 assay, LpxC enzyme from P. aeruginosa (PA LpxC enzyme IC50). The following applies: Table 3; LpxC enzyme 0.1 nM, 25° C., 1 hour; read-out: PA:IC50. Type of test: biochemical. The protocol: In order to assess the compounds biological activity, selected in vitro assays were conducted on selected compounds. One of the assays measured the compounds ability to disrupt the synthesis of lipopolysaccharide, LPS, which is a component of the outer membrane of Gram-negative bacteria. Disruption of this synthesis is lethal to the bacteria. The assay determined the compound's ability to inhibit LpxC, which is the first enzyme in the biosynthetic pathway for LPS (measured as IC50). Additionally, MICs (minimal inhibitory concentrations) were determined for several bacteria. The specific protocols are described below:
A) IC50 Assay, LpxC Enzyme from P. aeruginosa (Labeled as PA LpxC Enzyme IC50):
At the end of 1 hour, 5 ul of 1 N HCl was added to stop the enzyme reaction, the plates were centrifuged, and then processed with the BioTrove Rapidfire HTMS Mass Spectrometry System. A no-enzyme control was used in calculating the IC50 values from the percent conversion values.

The subject of test [3] is Escherichia coli EC-1: VOGEL, mouse virulent. Kind of test: MIC determination, EC-1. The test is classed as cell-based. The following applies: Escherichia coli, read-out: EC-1 (MIC), Table 3, lower of duplicate values. On the procedure:
as §1, §2, §3, §4
3) Escherichia coli EC-1: VOGEL, mouse virulent labeled as EC-1 in Tables 2 and 3;

Another test relates to PA:UC12120. Description: MIC determination, PA:UC12120 (Table 3). To be noted: Pseudomonas aeruginosa, UC12120, Table 3, lower of duplicate values. The test is classed as cell-based, Pseudomonas aeruginosa. On the procedure: as §1, §2, §3
In Table 3 below, column 1 corresponds to the Example number, column 2 provides the IUPAC name, columns 3-6 provide in vitro biological data generated in the same manner as in Table 2, columns 7 and 8 provide the retention times and mass spectra generated via LCMS, using the method described below. All data is not currently available for all compounds, as indicated by a blank cell in Table 3.

Take `CC(CCn1cc(F)c(-c2cccnc2)cc1=O)(C(=O)NO)S(C)(=O)=O` (stereo not drawn) [Example 65, 4-(5′-fluoro-2′-oxo-3,4′-bipyridin-1′(2′H)-yl)-N-hydroxy-2-methyl-2-(methylsulfonyl)butanamide]: the minimum inhibitory concentration (MIC) in test [1] was above 64 µg/mL; in test [3], above 64 µg/mL; against PA:UC12120 it was 32 µg/mL (≈ 83.5 µM). Further, the half-inhibitory concentration (IC50) in test [2] amounted to 82.3 nM.

In the case of `CC(CCn1cc(F)c(-c2ccc(F)cc2)cc1=O)(C(=O)NO)S(C)(=O)=O` (stereo not drawn) [Example 86, 4-[5-fluoro-4-(4-fluorophenyl)-2-oxopyridin-1(2H)-yl]-N-hydroxy-2-methyl-2-(methylsulfonyl)butanamide], the minimum inhibitory concentration (MIC) was above 64 µg/mL in test [1], 4 µg/mL (≈ 9.99 µM) in test [3] and 1 µg/mL (≈ 2.5 µM) against PA:UC12120. Besides, the concentration for half-maximal inhibition (IC50) in test [2] is 1.7 nM.

Consider `CN1Cc2ccc(-c3cc(=O)n(CCC(C)(C(=O)NO)S(C)(=O)=O)cc3F)cc2C1=O` (stereo not drawn) [Example 57, 4-[5-fluoro-4-(2-methyl-3-oxo-2,3-dihydro-1H-isoindol-5-yl)-2-oxopyridin-1(2H)-yl]-N-hydroxy-2-methyl-2-(methylsulfonyl)butanamide], for which the MIC (in test [1]; in test [3]; in the test on PA:UC12120) was above 64 µg/mL in each case. Also, in test [2], the IC50 was 21 nM.

Turning to `COc1cc(C#N)ccc1-c1cc(=O)n(CCC(C)(C(=O)NO)S(C)(=O)=O)cc1F` (stereo not drawn) [Example 101, 4-[4-(4-cyano-2-methoxyphenyl)-5-fluoro-2-oxopyridin-1(2H)-yl]-N-hydroxy-2-methyl-2-(methylsulfonyl)butanamide], the MIC is above 64 µg/mL in test [1], 64 µg/mL (≈ 146 µM) in test [3] and 8 µg/mL (≈ 18.3 µM) in the test with PA:UC12120. In test [2], the half-inhibitory concentration (IC50) stood at 5.2 nM.

Regarding `CN(C)C(=O)c1ccc(-c2cc(=O)n(CCC(C)(C(=O)NO)S(C)(=O)=O)cc2F)cc1` (stereo not drawn) [Example 68, 4-{5-fluoro-1-[4-(hydroxyamino)-3-methyl-3-(methylsulfonyl)-4-oxobutyl]-2-oxo-1,2-dihydropyridin-4-yl}-N,N-dimethylbenzamide], the minimum inhibitory concentration (MIC) (in test [1]; in test [3]; in the test with PA:UC12120) was above 64 µg/mL in each case. Further, the IC50 in test [2] amounted to 34.3 nM.

Regarding `COCc1ccccc1-c1cc(=O)n(CCC(C)(C(=O)NO)S(C)(=O)=O)cc1F` (stereo not drawn) [Example 110, 4-{5-fluoro-4-[2-(methoxymethyl)phenyl]-2-oxopyridin-1(2H)-yl}-N-hydroxy-2-methyl-2-(methylsulfonyl)butanamide], the MIC (in test [1]; in test [3]; against PA:UC12120) was above 64 µg/mL in each case. For the same compound, in test [2], the IC50 is above 100 nM.

Turning to `CC(CCn1cc(F)c(-c2cnc(N3CCCC3)nc2)cc1=O)(C(=O)NO)S(C)(=O)=O` (stereo not drawn) [Example 106, 4-[5-fluoro-2-oxo-4-(2-pyrrolidin-1-ylpyrimidin-5-yl)pyridin-1(2H)-yl]-N-hydroxy-2-methyl-2-(methylsulfonyl)butanamide], the minimum inhibitory concentration (MIC) in test [1] was above 64 µg/mL; in test [3] it was 32 µg/mL (≈ 70.6 µM); in the test with PA:UC12120, 64 µg/mL (≈ 141 µM). Besides, the IC50 in test [2] is 56.8 nM.

With `CC(CCn1cc(F)c(-c2ccc3c(c2)C(=O)NC3)cc1=O)(C(=O)NO)S(C)(=O)=O` (stereo not drawn) [Example 50, 4-[5-fluoro-2-oxo-4-(3-oxo-2,3-dihydro-1H-isoindol-5-yl)pyridin-1(2H)-yl]-N-hydroxy-2-methyl-2-(methylsulfonyl)butanamide], the MIC (in test [1]; in test [3]; with PA:UC12120) was above 64 µg/mL in each case. Further, the half-inhibitory concentration (IC50) in test [2] stood at 68.2 nM.

As for `CC(CCn1cc(F)c(-c2ccc(CO)nc2)cc1=O)(C(=O)NO)S(C)(=O)=O` (stereo not drawn) [Example 85, 4-[5′-fluoro-6-(hydroxymethyl)-2′-oxo-3,4′-bipyridin-1′(2′H)-yl]-N-hydroxy-2-methyl-2-(methylsulfonyl)butanamide], the MIC (in test [1]; in test [3]; against PA:UC12120) was above 64 µg/mL throughout. The IC50 in test [2] was above 100 nM.

A word on the MIC: it is the smallest concentration in the dilution series that meets the test's criterion for growth inhibition. As usually defined, the IC50 is the point on the concentration scale where inhibition reaches its midpoint.
